{"source": "paper PMC3111241", "about": "(Anesthesiology, 2009)", "key": {"Intravenous": {"test": "Intravenous", "conditions": "for EH (hepatic extraction) / AUC(0-inf) / Cmax: 6.0 mg IV methadone HCl; for AUC(0-t) / AUC(0-inf) / Cmax: human, plasma, iv, 6 mg; for AUC(0-t): AUC0-96, 6.0 mg IV methadone HCl; for AUC(0-inf): AUC0-∞"}, "Oral": {"test": "Oral", "conditions": "human, plasma, 11 mg, control"}, "[1]": {"tested_on": "dark-adapted pupil diameter (miosis)", "test": "Methadone pupil effect", "format": "in vivo, human", "conditions": "for AUEC0-∞ / Maximum miosis: 6.0 mg IV and 11.0 mg oral methadone HCl"}, "CYP3A": {"tested_on": "CYP3A", "conditions": "in vivo; cited from earlier work"}, "[2]": {"conditions": "steady-state ritonavir/indinavir"}}, "data": [{"smiles": "CCC(=O)C(C[C@H](C)N(C)C)(c1ccccc1)c1ccccc1", "note": "[S-methadone]", "values": [{"measurement": "EH (hepatic extraction)", "setting": "Intravenous; acute ritonavir/indinavir", "result": "0.10 ± 0.04"}, {"measurement": "EH (hepatic extraction)", "setting": "Intravenous; control", "result": "0.08 ± 0.02"}, {"measurement": "EH (hepatic extraction)", "setting": "Intravenous; [2]", "result": "0.10 ± 0.04"}, {"measurement": "AUC(0-t)", "setting": "Intravenous; acute ritonavir/indinavir", "result": "353 ± 150", "unit": "ng·h/mL"}, {"measurement": "AUC(0-t)", "setting": "Intravenous; control", "result": "401 ± 81", "unit": "ng·h/mL"}, {"measurement": "AUC(0-t)", "setting": "Intravenous; [2]", "result": "377 ± 170", "unit": "ng·h/mL"}, {"measurement": "AUC(0-inf)", "setting": "Intravenous; acute ritonavir/indinavir", "result": "390 ± 178", "unit": "ng·h/mL"}, {"measurement": "AUC(0-inf)", "setting": "Intravenous; control", "result": "436 ± 91", "unit": "ng·h/mL"}, {"measurement": "AUC(0-inf)", "setting": "Intravenous; [2]", "result": "406 ± 185", "unit": "ng·h/mL"}, {"measurement": "Cmax", "setting": "Intravenous; acute ritonavir/indinavir", "result": "69 ± 26", "unit": "ng/mL"}, {"measurement": "Cmax", "setting": "Intravenous; control", "result": "90 ± 53", "unit": "ng/mL"}, {"measurement": "Cmax", "setting": "Intravenous; [2]", "result": "80 ± 33", "unit": "ng/mL"}, {"measurement": "AUC(0-t)", "setting": "Oral; AUC0-96, 11.0 mg oral methadone HCl", "result": "639 ± 165", "unit": "ng·h/mL"}, {"measurement": "AUC(0-inf)", "setting": "Oral; AUC0-∞, 11.0 mg oral methadone HCl", "result": "710 ± 185", "unit": "ng·h/mL"}, {"measurement": "Cmax", "setting": "Oral; Cmax, 11.0 mg oral methadone HCl", "result": "23 ± 6", "unit": "ng/mL"}]}, {"smiles": "CCC(=O)C(CC(C)N(C)C)(c1ccccc1)c1ccccc1", "note": "(centres unmarked) [methadone]", "values": [{"measurement": "AUEC0-∞", "setting": "[1]; acute ritonavir/indinavir", "result": "65 ± 26", "unit": "mm/h"}, {"measurement": "Maximum miosis", "setting": "[1]; acute ritonavir/indinavir", "result": "3.5 ± 0.7", "unit": "mm"}, {"measurement": "AUEC0-∞", "setting": "[1]; control", "result": "52 ± 24", "unit": "mm/h"}, {"measurement": "Maximum miosis", "setting": "[1]; control", "result": "2.9 ± 1.0", "unit": "mm"}, {"measurement": "AUEC0-∞", "setting": "[1]; [2]", "result": "48 ± 25", "unit": "mm/h"}, {"measurement": "Maximum miosis", "setting": "[1]; [2]", "result": "3.2 ± 0.8", "unit": "mm"}, {"measurement": "methadone miosis and concentration-effect relationships, change by acute or steady-state ritonavir/indinavir", "setting": "[1]; in vivo", "result": "not significantly changed"}]}, {"smiles": "Cc1c(O)cccc1C(=O)N[C@@H](CSc1ccccc1)[C@H](O)CN1C[C@H]2CCCC[C@H]2C[C@H]1C(=O)NC(C)(C)C", "note": "[nelfinavir]", "values": [{"measurement": "inhibition of hepatic and first-pass CYP3A", "setting": "CYP3A", "result": "> 75", "unit": "%"}]}]}
